Earlier results as cited in patent US20250121105A1, “METHODS FOR TREATING CANCER USING COMBINATIONS OF PARP INHIBITORS AND ANTIBODY RADIOCONJUGATES” (ACTINIUM PHARMACEUTICALS, INC., priority 2019, published 2025).
Read-outs that look alike come from different tables or passages of the source.

Assays:
[1] = system: glioblastoma cancer cells; conditions: veliparib (ABT-888) plus ionizing radiation (IR)
[2] = order of magnitude only, stated in the background

Row | SMILES | sensitivity of glioblastoma cancer cells to PARPi with ionizing radiation [1] | IC50 values (PARP) | IC50 values (PARP; [2])
1 | C[C@]1(c2nc3c(C(N)=O)cccc3[nH]2)CCCN1 [veliparib] | IR sensitizes glioblastoma cancer cells to PARPi | nanomolar range | 
2 | NC(=O)c1cccc2cn(-c3ccc([C@@H]4CCCNC4)cc3)nc12 [niraparib] |  |  | nanomolar range
3 | Cn1ncnc1[C@H]1c2n[nH]c(=O)c3cc(F)cc(c23)N[C@@H]1c1ccc(F)cc1 [talazoparib] |  |  | picomolar range
4 | CNCc1ccc(-c2[nH]c3cc(F)cc4c3c2CCNC4=O)cc1 [rucaparib] |  |  | nanomolar range
